{"source": "patent US12121523B2", "about": "“Method of treatment of attention deficit/hyperactivity disorder (ADHD)” (Supernus Pharmaceuticals, Inc., priority 2008, dated 2024)", "key": {"[1]": {"target": "noradrenergic reuptake transporters (Homo sapiens, UniProt P23975)", "sequence (P23975 whole entry)": "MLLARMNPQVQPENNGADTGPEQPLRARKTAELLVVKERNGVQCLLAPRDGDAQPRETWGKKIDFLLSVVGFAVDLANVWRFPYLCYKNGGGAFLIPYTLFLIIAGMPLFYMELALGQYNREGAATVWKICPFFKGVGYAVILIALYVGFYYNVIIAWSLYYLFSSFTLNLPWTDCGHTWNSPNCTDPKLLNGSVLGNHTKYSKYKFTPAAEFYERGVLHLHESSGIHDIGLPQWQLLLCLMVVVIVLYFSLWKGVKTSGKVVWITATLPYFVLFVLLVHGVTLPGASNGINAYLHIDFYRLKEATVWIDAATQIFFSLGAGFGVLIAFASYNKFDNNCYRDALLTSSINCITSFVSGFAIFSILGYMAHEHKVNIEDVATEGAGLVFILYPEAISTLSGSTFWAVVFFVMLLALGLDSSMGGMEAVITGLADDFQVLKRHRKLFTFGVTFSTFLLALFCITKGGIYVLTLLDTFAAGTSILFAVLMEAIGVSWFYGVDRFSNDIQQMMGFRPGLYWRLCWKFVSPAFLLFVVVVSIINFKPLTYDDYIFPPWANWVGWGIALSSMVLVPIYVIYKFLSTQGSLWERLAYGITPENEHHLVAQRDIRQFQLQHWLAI", "conditions": "Tatsumi et al 1997; quantity type not given; cited from earlier work"}, "5-HT1B (h)": {"target": "5-HT1B (h) (Homo sapiens, UniProt P28222)", "sequence (P28222 whole entry)": "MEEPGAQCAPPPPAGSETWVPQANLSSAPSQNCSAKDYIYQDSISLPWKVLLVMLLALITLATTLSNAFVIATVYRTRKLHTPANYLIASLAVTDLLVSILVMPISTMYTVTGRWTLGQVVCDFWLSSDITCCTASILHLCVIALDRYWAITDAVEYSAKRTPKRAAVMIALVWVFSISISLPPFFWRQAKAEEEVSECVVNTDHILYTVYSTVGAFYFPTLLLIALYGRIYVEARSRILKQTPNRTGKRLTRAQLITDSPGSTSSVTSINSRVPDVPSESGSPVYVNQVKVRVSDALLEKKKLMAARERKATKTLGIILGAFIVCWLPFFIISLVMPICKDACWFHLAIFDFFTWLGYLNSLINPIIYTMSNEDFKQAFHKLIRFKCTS", "procedure": "The apparent dissociation constants for antagonists Kb were calculated using the modified Cheng Prusoff equation."}, "5-HT5A (h)": {"target": "5-HT5A (h) (Homo sapiens, UniProt P47898)", "sequence (P47898 whole entry)": "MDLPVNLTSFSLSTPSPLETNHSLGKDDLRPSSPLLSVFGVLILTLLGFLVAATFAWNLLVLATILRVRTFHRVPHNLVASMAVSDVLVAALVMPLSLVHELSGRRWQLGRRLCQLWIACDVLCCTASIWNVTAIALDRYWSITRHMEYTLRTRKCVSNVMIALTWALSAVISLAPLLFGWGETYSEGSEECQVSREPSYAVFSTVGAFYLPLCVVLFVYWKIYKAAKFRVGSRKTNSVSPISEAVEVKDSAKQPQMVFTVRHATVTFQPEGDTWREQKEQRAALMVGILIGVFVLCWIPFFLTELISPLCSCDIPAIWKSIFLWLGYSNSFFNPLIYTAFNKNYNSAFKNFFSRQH", "conditions": "10 μM viloxazine; [3H]LSD 1 nM; 60 min/37° C.", "source_text": "(§1) Briefly, recombinant 5-HT1B OR 5-HT7 receptors were expressed in a CHO cell line. The receptors were then saturated with a tritiated receptor-specific ligand at concentrations known to be saturating."}, "5-HT3 (h)": {"target": "5-HT3 (h) (Homo sapiens, UniProt P46098)", "sequence (P46098 24-478)": "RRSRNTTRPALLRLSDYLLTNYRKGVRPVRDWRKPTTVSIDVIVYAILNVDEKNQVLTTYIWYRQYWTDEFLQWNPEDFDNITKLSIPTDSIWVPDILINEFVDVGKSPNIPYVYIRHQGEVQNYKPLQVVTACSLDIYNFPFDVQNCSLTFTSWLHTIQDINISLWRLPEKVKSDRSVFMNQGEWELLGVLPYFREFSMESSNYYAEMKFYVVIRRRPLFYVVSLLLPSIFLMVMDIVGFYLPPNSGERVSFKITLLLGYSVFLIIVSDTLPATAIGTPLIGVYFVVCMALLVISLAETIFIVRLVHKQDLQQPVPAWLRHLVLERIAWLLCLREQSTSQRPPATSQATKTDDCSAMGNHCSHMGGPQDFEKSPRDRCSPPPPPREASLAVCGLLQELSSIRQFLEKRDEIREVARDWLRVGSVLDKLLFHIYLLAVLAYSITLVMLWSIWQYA", "conditions": "10 μM viloxazine; [3H]BRL 43694 0.5 nM; 120 min/22° C.", "source_text": "as §1"}, "5-HT4e (h)": {"target": "5-HT4e (h) (Homo sapiens, UniProt Q13639)", "sequence (Q13639 1-378 isoform Q13639-5)": "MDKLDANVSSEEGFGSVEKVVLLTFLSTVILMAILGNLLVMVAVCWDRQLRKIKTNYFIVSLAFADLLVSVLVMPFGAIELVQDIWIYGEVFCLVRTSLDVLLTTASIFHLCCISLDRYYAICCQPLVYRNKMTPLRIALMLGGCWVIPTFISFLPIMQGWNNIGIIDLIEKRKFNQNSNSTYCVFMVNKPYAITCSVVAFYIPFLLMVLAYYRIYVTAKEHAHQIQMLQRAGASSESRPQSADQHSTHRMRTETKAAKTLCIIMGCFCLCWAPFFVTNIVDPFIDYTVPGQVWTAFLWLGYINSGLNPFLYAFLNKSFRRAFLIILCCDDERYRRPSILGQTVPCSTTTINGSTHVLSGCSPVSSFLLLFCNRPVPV", "conditions": "10 μM viloxazine; [3H]GR 113808 0.3 nM; 60 min/37° C.", "source_text": "as §1"}, "5-HT6 (h)": {"target": "5-HT6 (h) (Homo sapiens, UniProt P50406)", "sequence (P50406 whole entry)": "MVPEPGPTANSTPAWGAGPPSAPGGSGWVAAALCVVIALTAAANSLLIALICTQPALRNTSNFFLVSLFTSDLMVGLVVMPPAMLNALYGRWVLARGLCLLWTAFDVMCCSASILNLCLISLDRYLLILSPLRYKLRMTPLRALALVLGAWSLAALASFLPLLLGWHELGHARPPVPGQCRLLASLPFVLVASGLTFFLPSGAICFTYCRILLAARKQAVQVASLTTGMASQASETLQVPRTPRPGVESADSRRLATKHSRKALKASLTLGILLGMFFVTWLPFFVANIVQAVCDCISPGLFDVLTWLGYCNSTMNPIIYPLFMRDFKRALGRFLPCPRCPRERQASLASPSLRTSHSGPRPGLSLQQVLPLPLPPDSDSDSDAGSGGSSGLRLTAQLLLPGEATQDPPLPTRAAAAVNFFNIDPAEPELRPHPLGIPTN", "conditions": "10 μM viloxazine; [3H]LSD 2 nM; 120 min/37° C.", "source_text": "as §1"}, "5-HT1D": {"target": "5-HT1D (Rattus norvegicus, UniProt P28565)", "sequence (P28565 whole entry)": "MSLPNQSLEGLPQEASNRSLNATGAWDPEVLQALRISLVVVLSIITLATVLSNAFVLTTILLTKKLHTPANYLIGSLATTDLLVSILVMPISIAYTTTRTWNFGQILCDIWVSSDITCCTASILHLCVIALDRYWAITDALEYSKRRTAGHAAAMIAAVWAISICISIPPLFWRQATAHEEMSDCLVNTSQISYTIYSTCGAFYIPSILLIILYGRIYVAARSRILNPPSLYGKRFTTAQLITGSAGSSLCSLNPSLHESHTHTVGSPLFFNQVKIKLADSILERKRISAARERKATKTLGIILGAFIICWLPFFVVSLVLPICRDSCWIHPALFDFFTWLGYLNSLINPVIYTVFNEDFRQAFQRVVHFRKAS", "conditions": "10 μM viloxazine; [3H]serotonin 1 nM; 60 min/22° C.", "source_text": "as §1"}}}
{"substance": "Viloxazine", "values": [{"measurement": "inhibition of noradrenergic reuptake transporters", "setting": "[1]", "value": 155, "unit": "nM"}, {"measurement": "antagonist activity (in words)", "setting": "5-HT1B (h)", "value": "specific antagonist activity"}, {"measurement": "% Inhib.", "setting": "5-HT5A (h)", "value": 15, "unit": "%"}, {"measurement": "% Inhib.", "setting": "5-HT3 (h)", "value": 18, "unit": "%"}, {"measurement": "% Inhib.", "setting": "5-HT4e (h)", "value": 16, "unit": "%"}, {"measurement": "% Inhib.", "setting": "5-HT6 (h)", "value": 6, "unit": "%"}, {"measurement": "% Inhib.", "setting": "5-HT1D", "value": 18, "unit": "%"}]}
